Results: patent US20230097580A1, “COMPOSITIONS AND METHODS FOR STIMULATING HAIR GROWTH” (Amplifica, Inc., priority 2020, published 2023)
Where two headings read alike, the source gives them in different places.

System: dorsal skin of P53 mice
Conditions: for induction (of anagen / hair growth): 25, 50, 100 µg/mL injections, overall, two mice; for hair growth induction: summary of figures; for hair growth in injection spot: 3 µL on 3 consecutive days, 18 days after injection; for pigmentation at injection site: at P14
From the text: Follow up experiments included lower HA concentrations (below 250 .mu·g/mL). A small incision was done using a thin needle (insulin syringe) to facilitate injection. […] In FIGS. 5-8, when looking at the back of the mouse with the mouse's head at the top, the control (1% BSA) injection is top left, the 25 .mu·g/ml injection is top right, the 100 .mu·g/ml injection is bottom right, and the 50 .mu·g/ml injection is bottom left.
FIGS. 5 and 6 show representative images of two mice, each of which received injections of low molecular weight HA. FIGS. 7 and 8 show representative images of two mice, each of which received injections of high molecular weight HA.
For high molecular weight the injection site was monitored for 18 days for full anagen.

Substance | induction (of anagen / hair growth) | hair growth induction (50 µg/mL) | hair growth induction (100 µg/mL) | hair growth in injection spot (FIG. 7 mouse, 50 µg/ml) | hair growth in injection spot (FIG. 7 mouse, 100 µg/ml) | hair growth in injection spot (FIG. 8 mouse, 25 µg/ml) | hair growth in injection spot (FIG. 8 mouse, 50 µg/ml) | pigmentation at injection site | anagen spot at injection site (25 µg/mL, mouse 2 (FIG. 6), only in one mouse) | hair growth in injection spot (FIG. 5 mouse, 25 µg/ml) | hair growth in injection spot (FIG. 5 mouse, 100 µg/ml) | hair growth in injection spot (FIG. 6 mouse, 25 µg/ml) | hair growth in injection spot (FIG. 6 mouse, 100 µg/ml)
hyaluronic acid [intermediate weight HA] | no induction |  |  |  |  |  |  |  |  |  |  |  | 
hyaluronic acid [high molecular weight HA] | good induction | induces | induces | growth | growth | growth | growth | apparent |  |  |  |  | 
hyaluronic acid [low molecular weight HA] | good induction |  | induced hair growth |  |  |  |  | apparent | nice anagen spot | growth | growth | growth | growth
